ChEMBL document CHEMBL2062364, “Discovery and optimization of new benzimidazole- and benzoxazole-pyrimidone selective PI3Kβ inhibitors for the treatment of phosphatase and TENsin homologue (PTEN)-deficient cancers” (J Med Chem, 2012)
In brackets after ≈: the same amount, converted by molar mass.

What was measured:
[1] = molecular target: T1, Phosphatidylinositol 4,5-bisphosphate 3-kinase catalytic subunit beta isoform (Homo sapiens, UniProt P42338); experiment: Inhibition of N-terminus poly-His tagged human PI3Kbeta expressed in baculovirus infected insect […] cells coexpressing p85alpha using PI(4,5)P2 as substrate preincubated with compound for 15 mins measured after 10 mins by HTRF assay
[2] = Apparent permeability of the compound across human Caco2 cells; type: ADME, cell-based; details: Caco-2
[3] = molecular target: Phosphatidylinositol 4,5-bisphosphate 3-kinase catalytic subunit alpha isoform (Homo sapiens, UniProt P42336); experiment: Inhibition of N-terminus poly-His tagged human PI3Kalpha expressed in baculovirus infected insect sf9 cells coexpressing p85alpha using PI(4,5)P2 as substrate preincubated with compound for 15 mins measured after 10 mins by HTRF assay
[4] = Drug metabolism in mouse liver microsomes; type: ADME, Microsome; details: read-out: Drug metabolism
Cytochrome P450 3A4 = Cytochrome P450 3A4 (Homo sapiens, UniProt P08684); experiment: Inhibition of human recombinant CPY3A4
[5] = Drug metabolism in human liver microsomes; type: ADME, Microsome; details: read-out: Drug metabolism
[6] = Thermodynamic solubility of the compound in phosphate buffer at pH 7.4 after 16 hrs by HPLC analysis; type: physicochemical; details: read-out: Therm_solubility
[7] = molecular target: T1, Phosphatidylinositol 4,5-bisphosphate 3-kinase catalytic subunit beta isoform; experiment: Inhibition of human PI3Kbeta-mediated Akt phosphorylation at Ser473 residue expressed in PTEN-deficient human PC3 cells by chemiluminescence assay; type: cell-based, PC-3
[8] = molecular target: Serine/threonine-protein kinase mTOR (Homo sapiens, UniProt P42345); experiment: Inhibition of mTOR
[9] = molecular target: T2, Phosphatidylinositol 4,5-bisphosphate 3-kinase catalytic subunit delta isoform (Homo sapiens, UniProt O00329); experiment: Inhibition of poly-His tagged human PI3Kdelta expressed in baculovirus infected insect sf9 cells coexpressing p85alpha using PI(4,5)P2 as substrate preincubated with compound for 15 mins measured after 10 mins by HTRF assay
T2 sequence (O00329 whole entry): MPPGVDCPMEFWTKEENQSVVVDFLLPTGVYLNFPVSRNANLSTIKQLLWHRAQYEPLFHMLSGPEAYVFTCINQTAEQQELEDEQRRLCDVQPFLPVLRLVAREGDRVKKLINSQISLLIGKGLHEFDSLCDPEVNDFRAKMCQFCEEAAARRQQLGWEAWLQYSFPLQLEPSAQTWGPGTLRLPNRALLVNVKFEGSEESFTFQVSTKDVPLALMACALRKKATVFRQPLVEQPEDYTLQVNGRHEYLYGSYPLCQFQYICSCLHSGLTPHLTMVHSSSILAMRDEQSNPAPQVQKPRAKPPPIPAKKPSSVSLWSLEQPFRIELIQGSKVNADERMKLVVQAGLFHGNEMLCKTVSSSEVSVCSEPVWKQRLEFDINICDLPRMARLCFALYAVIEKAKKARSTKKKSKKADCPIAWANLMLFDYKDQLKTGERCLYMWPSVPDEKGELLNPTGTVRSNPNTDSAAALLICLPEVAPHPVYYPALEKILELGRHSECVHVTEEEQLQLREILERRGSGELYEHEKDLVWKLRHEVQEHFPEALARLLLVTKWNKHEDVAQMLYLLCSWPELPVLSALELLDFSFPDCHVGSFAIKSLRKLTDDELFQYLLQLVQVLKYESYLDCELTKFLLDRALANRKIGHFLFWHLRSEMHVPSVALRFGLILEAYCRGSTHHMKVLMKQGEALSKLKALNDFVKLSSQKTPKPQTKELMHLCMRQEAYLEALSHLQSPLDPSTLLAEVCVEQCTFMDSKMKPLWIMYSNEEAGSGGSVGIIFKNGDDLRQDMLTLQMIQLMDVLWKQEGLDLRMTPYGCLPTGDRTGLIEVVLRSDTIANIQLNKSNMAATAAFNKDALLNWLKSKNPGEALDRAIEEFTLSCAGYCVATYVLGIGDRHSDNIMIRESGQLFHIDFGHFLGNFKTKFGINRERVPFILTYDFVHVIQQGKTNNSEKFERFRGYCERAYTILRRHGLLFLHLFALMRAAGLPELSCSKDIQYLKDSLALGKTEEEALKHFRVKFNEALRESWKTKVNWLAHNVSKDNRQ

[10] = molecular target: Phosphatidylinositol 4,5-bisphosphate 3-kinase catalytic subunit gamma isoform (Homo sapiens, UniProt P48736); experiment: Inhibition of N-terminus poly-His tagged human PI3Kgamma expressed in baculovirus infected insect sf9 cells using PI(4,5)P2 as substrate preincubated with compound for 15 mins measured after 10 mins by HTRF assay
[11] = molecular target: T1, Phosphatidylinositol 4,5-bisphosphate 3-kinase catalytic subunit beta isoform; experiment: Inhibition of human PI3Kbeta-mediated Akt phosphorylation at T308 residue expressed in PTEN-deficient human PC3 cells after 2 hrs by Western blot analysis; type: cell-based, PC-3
[12] = Inhibition of mTORC2-mediated Akt phosphorylation at Ser473 residue in PTEN-deficient human PC3 cells after 2 hrs by Western blot analysis; type: cell-based; details: PC-3, 2 h

Cytochrome P450 3A4, sequence (P08684 whole entry): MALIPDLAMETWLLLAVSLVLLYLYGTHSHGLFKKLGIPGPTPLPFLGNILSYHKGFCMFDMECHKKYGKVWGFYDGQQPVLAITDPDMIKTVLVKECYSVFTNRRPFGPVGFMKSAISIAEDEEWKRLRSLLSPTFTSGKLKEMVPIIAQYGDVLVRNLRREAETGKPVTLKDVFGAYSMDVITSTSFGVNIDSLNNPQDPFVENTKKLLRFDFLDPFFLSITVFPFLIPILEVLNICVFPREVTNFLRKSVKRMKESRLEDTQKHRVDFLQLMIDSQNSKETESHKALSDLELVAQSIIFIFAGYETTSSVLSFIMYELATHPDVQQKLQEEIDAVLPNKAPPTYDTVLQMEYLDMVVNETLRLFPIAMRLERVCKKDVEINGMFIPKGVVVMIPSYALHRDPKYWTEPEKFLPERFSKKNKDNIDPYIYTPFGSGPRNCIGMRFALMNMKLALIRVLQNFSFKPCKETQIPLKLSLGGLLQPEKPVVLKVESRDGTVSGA
Phosphatidylinositol 4,5-bisphosphate 3-kinase catalytic subunit gamma isoform, sequence (P48736 whole entry, canonical isoform): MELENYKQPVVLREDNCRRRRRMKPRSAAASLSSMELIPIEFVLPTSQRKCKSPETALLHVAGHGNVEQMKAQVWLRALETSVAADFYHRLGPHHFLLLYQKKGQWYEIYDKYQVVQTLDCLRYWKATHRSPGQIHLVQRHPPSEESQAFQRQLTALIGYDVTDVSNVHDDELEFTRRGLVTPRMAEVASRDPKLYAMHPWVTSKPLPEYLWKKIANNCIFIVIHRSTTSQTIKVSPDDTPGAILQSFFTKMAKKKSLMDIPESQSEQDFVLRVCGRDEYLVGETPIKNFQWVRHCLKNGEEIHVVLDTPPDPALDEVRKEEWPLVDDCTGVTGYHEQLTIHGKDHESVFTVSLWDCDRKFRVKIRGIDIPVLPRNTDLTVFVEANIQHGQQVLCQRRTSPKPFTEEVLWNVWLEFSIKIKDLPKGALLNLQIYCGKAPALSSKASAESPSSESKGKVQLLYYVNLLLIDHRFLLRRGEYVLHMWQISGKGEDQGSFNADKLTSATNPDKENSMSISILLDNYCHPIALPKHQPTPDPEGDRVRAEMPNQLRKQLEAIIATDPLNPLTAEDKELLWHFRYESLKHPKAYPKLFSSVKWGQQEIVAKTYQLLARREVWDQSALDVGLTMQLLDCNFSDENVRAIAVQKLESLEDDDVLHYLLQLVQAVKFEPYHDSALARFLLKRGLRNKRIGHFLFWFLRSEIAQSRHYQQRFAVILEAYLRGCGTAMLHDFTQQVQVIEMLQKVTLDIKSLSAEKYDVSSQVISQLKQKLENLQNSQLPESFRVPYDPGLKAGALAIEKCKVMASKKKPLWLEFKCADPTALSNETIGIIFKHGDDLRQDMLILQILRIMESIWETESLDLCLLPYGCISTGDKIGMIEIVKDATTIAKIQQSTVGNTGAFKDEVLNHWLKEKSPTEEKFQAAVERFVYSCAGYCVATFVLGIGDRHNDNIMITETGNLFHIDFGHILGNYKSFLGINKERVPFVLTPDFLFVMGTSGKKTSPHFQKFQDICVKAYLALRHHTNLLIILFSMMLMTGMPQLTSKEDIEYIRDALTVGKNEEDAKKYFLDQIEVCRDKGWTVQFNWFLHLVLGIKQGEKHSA
T1 sequence (P42338 whole entry, canonical isoform): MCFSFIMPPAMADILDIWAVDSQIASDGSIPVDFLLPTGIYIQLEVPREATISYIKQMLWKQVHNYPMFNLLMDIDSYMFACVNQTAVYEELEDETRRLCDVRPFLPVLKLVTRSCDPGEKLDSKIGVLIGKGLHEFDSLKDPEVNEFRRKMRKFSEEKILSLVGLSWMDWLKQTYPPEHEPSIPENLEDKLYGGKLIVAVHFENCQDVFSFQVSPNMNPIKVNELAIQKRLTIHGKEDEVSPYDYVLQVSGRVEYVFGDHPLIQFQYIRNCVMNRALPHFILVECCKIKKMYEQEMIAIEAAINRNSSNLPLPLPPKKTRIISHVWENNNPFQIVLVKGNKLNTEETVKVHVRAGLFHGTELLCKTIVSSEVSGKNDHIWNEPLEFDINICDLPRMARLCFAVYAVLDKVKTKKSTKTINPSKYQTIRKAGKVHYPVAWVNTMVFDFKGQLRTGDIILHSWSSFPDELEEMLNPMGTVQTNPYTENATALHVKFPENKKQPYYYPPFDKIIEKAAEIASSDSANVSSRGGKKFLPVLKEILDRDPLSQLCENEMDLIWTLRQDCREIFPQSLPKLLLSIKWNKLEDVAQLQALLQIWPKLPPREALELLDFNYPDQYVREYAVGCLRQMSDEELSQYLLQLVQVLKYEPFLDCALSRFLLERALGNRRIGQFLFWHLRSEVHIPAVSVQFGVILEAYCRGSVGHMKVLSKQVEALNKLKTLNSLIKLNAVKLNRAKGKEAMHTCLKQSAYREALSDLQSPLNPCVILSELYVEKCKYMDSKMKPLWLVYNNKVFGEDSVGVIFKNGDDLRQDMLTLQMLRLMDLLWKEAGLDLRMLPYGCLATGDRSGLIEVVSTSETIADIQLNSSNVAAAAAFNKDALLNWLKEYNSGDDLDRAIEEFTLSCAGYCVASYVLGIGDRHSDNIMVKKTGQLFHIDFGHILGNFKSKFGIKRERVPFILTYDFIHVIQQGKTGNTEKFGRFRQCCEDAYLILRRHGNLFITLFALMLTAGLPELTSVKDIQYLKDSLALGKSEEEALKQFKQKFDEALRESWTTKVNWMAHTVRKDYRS
Phosphatidylinositol 4,5-bisphosphate 3-kinase catalytic subunit alpha isoform, sequence (P42336 whole entry, canonical isoform): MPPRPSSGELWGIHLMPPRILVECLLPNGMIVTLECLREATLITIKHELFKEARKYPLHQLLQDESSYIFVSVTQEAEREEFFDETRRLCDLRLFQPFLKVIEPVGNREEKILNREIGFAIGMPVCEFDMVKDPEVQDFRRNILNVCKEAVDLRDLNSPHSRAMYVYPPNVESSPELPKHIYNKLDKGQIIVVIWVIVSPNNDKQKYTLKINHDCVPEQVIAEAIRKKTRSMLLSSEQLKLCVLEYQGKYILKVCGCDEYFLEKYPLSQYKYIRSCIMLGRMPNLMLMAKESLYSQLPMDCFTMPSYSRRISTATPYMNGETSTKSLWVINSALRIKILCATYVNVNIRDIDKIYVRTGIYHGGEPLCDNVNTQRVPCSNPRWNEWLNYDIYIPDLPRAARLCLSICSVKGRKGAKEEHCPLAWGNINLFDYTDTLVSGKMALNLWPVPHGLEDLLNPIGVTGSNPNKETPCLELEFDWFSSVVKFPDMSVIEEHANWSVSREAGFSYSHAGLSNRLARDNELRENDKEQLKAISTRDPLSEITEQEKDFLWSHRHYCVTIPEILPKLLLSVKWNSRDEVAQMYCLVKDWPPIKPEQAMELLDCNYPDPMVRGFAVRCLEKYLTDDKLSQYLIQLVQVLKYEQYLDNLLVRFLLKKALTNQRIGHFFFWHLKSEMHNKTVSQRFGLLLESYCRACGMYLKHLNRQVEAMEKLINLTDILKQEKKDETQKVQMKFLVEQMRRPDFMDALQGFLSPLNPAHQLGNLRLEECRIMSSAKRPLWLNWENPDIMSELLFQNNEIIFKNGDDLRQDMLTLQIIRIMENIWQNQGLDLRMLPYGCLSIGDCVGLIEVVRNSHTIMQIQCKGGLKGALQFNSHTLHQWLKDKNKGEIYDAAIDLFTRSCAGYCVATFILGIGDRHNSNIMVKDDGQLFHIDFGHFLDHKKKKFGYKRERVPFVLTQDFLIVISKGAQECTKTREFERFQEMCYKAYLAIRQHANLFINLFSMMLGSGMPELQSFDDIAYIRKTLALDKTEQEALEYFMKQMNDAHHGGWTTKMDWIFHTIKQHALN

SMILES | IC50 [1] [µM] | Papp [2] [nm/s] | IC50 [3] [µM] | metabolised [4] [%] | IC50 (Cytochrome P450 3A4) [µM] | metabolised [5] [%] | solubility thermodynamic at 16 h [6] [µM] | IC50 [7] [µM] | IC50 [8] [µM] | IC50 [9] [µM] | IC50 [10] [µM] | IC50 [11] [µM] | IC50 [12] [µM]
Cn1c(Cc2nc(N3CCOCC3)cc(=O)[nH]2)nc2cc(F)ccc21 | 0.082 | 31 | > 10 | 20 | > 40 | 39 | 3 (≈ 1.03 µg/mL) | 0.016 | > 10 | 0.855 | > 10 | – | –
O=c1cc(N2CCOCC2)nc(Cc2nc3cc(F)ccc3o2)[nH]1 | 0.046 | 160 | > 10 | 23 | > 40 | 47 | 3 (≈ 0.991 µg/mL) | 0.026 | > 10 | 0.854 | > 10 | – | –
O=c1cc(N2CCOCC2)nc(Cc2nc3ccccc3n2-c2ccccc2)[nH]1 | 0.075 | 44 | 6.79 | 100 | > 40 | 98 | 397 (≈ 154 µg/mL) | 0.008 | > 10 | 0.036 | > 10 | – | –
O=c1cc(N2CCOCC2)nc(Cc2nc3c(-c4cccs4)cccc3o2)[nH]1 | 0.046 | 255 | 4.36 | 79 | 19 | 60 | 3 (≈ 1.18 µg/mL) | 0.022 | > 10 | 0.398 | 5.74 | – | –
O=c1cc(N2CCOCC2)nc(Cc2nc3c(-c4ccccc4)cccc3[nH]2)[nH]1 | 0.01 | 1 | 5.5 | 51 | > 40 | 78 | 3 (≈ 1.16 µg/mL) | 0.065 | > 10 | 0.18 | > 10 | – | –
Cc1cc(C(C)Nc2ccccc2)c2oc(N3CCOCC3)cc(=O)c2c1 (centres undefined) | 0.028 | – | – | – | – | – | – | 0.003 | – | – | – | 0.003 | 0.003
O=c1cc(N2CCOCC2)nc(Cc2nc3ccccc3n2C2CCCCC2)[nH]1 | 0.09 | 15 | 8.4 | 96 | > 40 | 97 | – | 0.142 | > 10 | 0.021 | > 10 | – | –
O=c1cc(N2CCOCC2)nc(Cc2nc3c(-c4ccccc4)cccc3o2)[nH]1 | 0.019 | 310 | 7.75 | 26 | – | 40 | 3 (≈ 1.17 µg/mL) | 0.013 | > 10 | 0.373 | > 10 | – | –
O=c1cc(N2CCOCC2)nc(Cc2nc3cccc(-c4ccccc4)c3o2)[nH]1 | 0.09 | 323 | > 10 | 61 | > 40 | 57 | 3 (≈ 1.17 µg/mL) | 0.177 | > 10 | 1.18 | > 10 | – | –
O=c1cc(N2CCOCC2)nc(Cc2nc3ccccc3o2)[nH]1 | 0.082 | 199 | > 10 | 7 | > 40 | 41 | 160 (≈ 50 µg/mL) | 0.062 | > 10 | 0.779 | > 10 | – | –
CCn1c(Cc2nc(N3CCOCC3)cc(=O)[nH]2)nc2ccccc21 | 0.072 | 5 | 1 | 48 | > 40 | 60 | 221 (≈ 75 µg/mL) | 0.026 | > 10 | 0.225 | 8.27 | – | –
O=c1cc(N2CCOCC2)nc(Cc2nc3cc(Br)ccc3[nH]2)[nH]1 | 0.091 | – | 5.46 | 27 | > 40 | 75 | 3 (≈ 1.17 µg/mL) | 0.085 | > 10 | 0.442 | > 10 | – | –
Cn1c(Cc2nc(N3CCOCC3)cc(=O)[nH]2)nc2cccc(-c3ccccc3)c21 | 0.06 | 39 | 4.58 | 55 | > 40 | 57 | 2 (≈ 0.803 µg/mL) | 0.017 | > 10 | 0.181 | > 10 | – | –
O=c1cc(N2CCOCC2)nc(Cc2nc3c(-c4ccccc4)c(F)ccc3o2)[nH]1 | 0.008 | 371 | > 10 | 17 | > 40 | 18 | 15 (≈ 6.1 µg/mL) | 0.006 | > 10 | 0.151 | > 10 | – | –
O=c1cc(N2CCOCC2)nc(Cc2nc3ccc(Cl)cc3[nH]2)[nH]1 | 0.099 | – | 5.65 | 35 | > 40 | 78 | 3 (≈ 1.04 µg/mL) | 0.063 | > 10 | 0.247 | > 10 | – | –
